Data as given in patent publication US6897224B2, “Quinoline and isoquinoline derivatives, a process for their production and their use as inflammation inhibitors” (Schering AG, priority 2002, dated 2005).

Experiments:
[1] = biological target: T1, progesterone receptor (PR) (Homo sapiens, UniProt P06401); experiment: Binding to the progesterone receptor, recombinantly produced receptor
T1 construct: made in house
T1 sequence (P06401 1-933): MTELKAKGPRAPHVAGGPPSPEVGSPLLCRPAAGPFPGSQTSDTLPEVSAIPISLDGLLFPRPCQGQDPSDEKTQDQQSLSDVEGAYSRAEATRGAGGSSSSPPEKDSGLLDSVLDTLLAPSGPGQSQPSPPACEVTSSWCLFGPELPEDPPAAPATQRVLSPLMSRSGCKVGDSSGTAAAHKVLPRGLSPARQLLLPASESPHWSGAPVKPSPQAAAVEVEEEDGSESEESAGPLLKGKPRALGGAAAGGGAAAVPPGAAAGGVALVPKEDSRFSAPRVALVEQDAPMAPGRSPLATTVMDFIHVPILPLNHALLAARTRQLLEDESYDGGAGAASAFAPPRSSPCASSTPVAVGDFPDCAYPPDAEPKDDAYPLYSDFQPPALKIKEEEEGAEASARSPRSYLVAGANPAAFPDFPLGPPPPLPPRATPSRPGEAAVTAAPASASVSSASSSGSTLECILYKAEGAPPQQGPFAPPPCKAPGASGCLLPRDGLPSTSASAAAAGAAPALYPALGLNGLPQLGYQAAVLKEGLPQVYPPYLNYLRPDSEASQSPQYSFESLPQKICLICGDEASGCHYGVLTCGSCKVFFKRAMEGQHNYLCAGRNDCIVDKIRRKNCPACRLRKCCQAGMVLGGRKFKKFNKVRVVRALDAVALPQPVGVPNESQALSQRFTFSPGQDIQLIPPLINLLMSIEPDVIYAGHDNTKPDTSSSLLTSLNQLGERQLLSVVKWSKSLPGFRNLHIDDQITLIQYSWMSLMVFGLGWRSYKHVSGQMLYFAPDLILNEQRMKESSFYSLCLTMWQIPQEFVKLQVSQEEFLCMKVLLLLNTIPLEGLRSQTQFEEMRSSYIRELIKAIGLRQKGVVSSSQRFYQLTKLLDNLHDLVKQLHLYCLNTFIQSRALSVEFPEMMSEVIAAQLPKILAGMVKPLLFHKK

androgen receptor (AR) = biological target: T2, androgen receptor (AR) (Homo sapiens, UniProt P10275); experiment: Binding to the androgen receptor, recombinantly produced receptor
T2 construct: made in house
T2 sequence (P10275 1-920): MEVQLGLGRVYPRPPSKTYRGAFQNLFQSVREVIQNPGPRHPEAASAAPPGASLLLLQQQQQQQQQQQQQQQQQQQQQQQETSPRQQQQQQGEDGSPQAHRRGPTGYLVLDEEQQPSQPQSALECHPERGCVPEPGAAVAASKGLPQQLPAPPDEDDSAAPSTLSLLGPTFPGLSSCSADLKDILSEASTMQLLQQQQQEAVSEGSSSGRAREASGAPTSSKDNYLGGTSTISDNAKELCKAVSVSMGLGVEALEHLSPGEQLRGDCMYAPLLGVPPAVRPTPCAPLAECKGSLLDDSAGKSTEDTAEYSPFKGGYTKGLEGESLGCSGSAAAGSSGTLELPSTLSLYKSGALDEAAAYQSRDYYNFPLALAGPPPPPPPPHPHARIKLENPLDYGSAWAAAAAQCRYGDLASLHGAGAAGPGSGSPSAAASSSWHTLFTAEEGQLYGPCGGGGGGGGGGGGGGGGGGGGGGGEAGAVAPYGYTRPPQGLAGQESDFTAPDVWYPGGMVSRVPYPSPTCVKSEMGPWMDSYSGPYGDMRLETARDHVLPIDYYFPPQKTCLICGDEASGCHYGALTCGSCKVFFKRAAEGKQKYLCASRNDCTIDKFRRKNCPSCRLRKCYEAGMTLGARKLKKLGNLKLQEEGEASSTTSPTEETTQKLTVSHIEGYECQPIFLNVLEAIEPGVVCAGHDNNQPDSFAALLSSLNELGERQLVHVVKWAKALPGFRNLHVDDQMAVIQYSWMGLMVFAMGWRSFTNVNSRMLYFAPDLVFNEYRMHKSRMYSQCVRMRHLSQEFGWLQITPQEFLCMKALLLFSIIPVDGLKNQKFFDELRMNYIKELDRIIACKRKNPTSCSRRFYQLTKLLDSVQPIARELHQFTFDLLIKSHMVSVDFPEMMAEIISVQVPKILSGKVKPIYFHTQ

[2] = biological target: glucocorticoid receptor (GR) (Homo sapiens, UniProt P04150); experiment: biochemical
From the text: The binding of the substances to the glucocorticoid receptor (GR) and other steroid hormone receptors (mineral corticoid receptor (MR), progesterone receptor (PR) and androgen receptor (AR)) is examined with the aid of recombinantly produced receptors. Cytosol preparations of Sf9 cells, which had been infected with recombinant baculoviruses that code for the GR, are used for the binding studies.

[3] = biological target: T3, mineral corticoid receptor (MR) (Homo sapiens, UniProt P08235); experiment: Binding to the mineral corticoid receptor, recombinantly produced receptor
T3 construct: made in house
T3 sequence (P08235 1-984): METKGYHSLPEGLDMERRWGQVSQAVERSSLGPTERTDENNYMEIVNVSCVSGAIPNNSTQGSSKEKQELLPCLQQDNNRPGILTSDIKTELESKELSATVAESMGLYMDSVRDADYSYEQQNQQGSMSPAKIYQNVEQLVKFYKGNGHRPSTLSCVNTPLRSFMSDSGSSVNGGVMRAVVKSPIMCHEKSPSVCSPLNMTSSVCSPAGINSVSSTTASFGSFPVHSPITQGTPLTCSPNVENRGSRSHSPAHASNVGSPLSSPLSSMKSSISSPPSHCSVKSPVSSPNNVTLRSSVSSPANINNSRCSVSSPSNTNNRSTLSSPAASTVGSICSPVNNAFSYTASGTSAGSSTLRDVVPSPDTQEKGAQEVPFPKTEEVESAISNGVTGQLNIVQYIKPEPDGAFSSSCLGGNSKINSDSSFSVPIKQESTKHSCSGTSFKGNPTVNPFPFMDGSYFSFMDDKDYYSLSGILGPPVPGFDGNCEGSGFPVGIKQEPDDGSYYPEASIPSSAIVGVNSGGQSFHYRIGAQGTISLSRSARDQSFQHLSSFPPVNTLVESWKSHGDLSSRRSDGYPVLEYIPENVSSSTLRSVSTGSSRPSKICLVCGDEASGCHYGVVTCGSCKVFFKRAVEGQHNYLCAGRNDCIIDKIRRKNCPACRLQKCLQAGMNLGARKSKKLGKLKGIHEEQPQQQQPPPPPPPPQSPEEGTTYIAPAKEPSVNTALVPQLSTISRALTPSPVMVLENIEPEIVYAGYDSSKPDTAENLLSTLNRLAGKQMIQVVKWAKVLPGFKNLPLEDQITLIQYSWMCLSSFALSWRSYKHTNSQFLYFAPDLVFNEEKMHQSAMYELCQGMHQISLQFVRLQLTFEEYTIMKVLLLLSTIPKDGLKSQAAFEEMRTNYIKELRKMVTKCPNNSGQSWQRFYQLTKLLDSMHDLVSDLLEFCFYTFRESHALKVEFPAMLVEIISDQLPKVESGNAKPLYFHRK

Sequence of glucocorticoid receptor (GR) (P04150 whole entry, species assumed): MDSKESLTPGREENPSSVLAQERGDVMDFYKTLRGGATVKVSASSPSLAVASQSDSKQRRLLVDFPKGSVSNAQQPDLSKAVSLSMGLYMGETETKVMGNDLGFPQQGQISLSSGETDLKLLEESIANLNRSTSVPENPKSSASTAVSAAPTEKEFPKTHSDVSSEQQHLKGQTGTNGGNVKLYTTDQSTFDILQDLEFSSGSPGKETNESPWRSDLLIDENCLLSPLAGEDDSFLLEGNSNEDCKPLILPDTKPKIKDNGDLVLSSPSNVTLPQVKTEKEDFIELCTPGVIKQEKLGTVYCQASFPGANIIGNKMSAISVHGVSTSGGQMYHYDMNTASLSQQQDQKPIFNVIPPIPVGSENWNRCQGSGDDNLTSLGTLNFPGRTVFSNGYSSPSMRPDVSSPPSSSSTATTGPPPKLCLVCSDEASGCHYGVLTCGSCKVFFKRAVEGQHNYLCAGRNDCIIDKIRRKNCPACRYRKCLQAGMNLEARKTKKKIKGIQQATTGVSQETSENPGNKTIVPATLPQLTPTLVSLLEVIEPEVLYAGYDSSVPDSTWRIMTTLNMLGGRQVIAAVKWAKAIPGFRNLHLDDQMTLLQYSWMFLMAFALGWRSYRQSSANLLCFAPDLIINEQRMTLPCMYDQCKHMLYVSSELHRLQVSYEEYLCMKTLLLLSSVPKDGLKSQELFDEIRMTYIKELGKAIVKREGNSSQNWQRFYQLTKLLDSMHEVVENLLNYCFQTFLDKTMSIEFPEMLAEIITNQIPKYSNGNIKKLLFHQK

CC(C)(CC(O)(CNc1cccc2ncccc12)C(F)(F)F)c1cc(F)ccc1O (stereo not shown) [Example 4]
IC50 [1]: > 1000 nM | IC50 (androgen receptor (AR)): > 1000 nM | IC50 [2]: 0.6 to 1.3 nM | IC50 [3]: > 1000 nM
